# Experimental data published in patent US7662803B2, “Method for treating warm-blooded vertebrates with halide-free glucosamine-acidic drug complexes” (Gluconova, LLC, priority 2004, dated 2010).
# Experiments:
# Format in all cases: in vivo
# male Swiss Webster mice [1] = test: Elevated Plus Maze (test for antianxiety activity); settings: 0.50 mg/kg intraperitoneal, 30 min before test, 5 minute on maze, 6 mice
# Protocol: The apparatus employed in this example consisted of two darkened enclose arms and two open arms, with a light beam focused on the open arms. The maze is elevated to a height of 55 cm. Mice have a desire to explore the apparatus, but the open, bristly lit arms present an aversive environment so that their preference is to remain in the enclosed arms.
# Thirty minutes later, each animal was individually placed on the elevated maze for 5 minute and the time spent on the open (aversive) arms was recorded.
# male Swiss Webster mice [2] = test: Metrazol-induced convulsions (test for antiepileptic activity); settings: 15 mg/kg subcutaneous, 15 min before metrazol 120 mg/kg s.c., 10 mice
# Protocol: Three groups of 10 male Swiss Webster mice (25-30 g) received a subcutaneous injection of one of the following treatments: vehicle alone; phenytoin (15 mg/kg in 1% Tween® 80); halide-free glucosamine-phenytoin complex, ˜1:1 molar ratio, (15 mg/kg in water). Fifteen minutes later, each animal was injected subcutaneously with a convulsant dose of metrazol (120 mg/kg) and observed for 60 minutes for an entire-body convulsion.
# male Swiss-Webster mice = test: abdominal irritant test (test for analgesia), acetylcholine bromide i.p.; settings: 30 min before acetylcholine bromide 5.5 mg/kg i.p., observed 10 min, 10 mice per group
# Protocol: The test that was employed is an abdominal irritant test that was carried out in accordance with the procedure set forth by Collier et al., Brit. J. Pharmacol., 32:295-310 (1968).
# Each group of 10 male Swiss-Webster mice weighing 25-30 g received an oral injection of (a) distilled water or 1% Tween® 80; or (b) a previously established analgesic dose of either ibuprofen (30 mg/kg), ketoprofen (200 mg/kg), naproxen (30 mg/kg), piroxicam (3 mg/kg) or aspirin (150 mg/kg) or ([…]).
# Thirty minutes after each injection, each mouse was injected i.p. ([…]) with an aqueous solution of acetylcholine bromide (5.5 mg/kg). The animals were then observed for 10 minutes for the presence or absence of a characteristic wave of contraction and elongation passing caudally along the abdominal wall, accompanied by a twisting of the trunk and followed by extension of the hind limbs. The percentage of analgesia was then calculated for each group based on the percentage of mice displaying no behavioral response.
# [3] = 30 mg/kg oral (complex: mg/kg of the complex)
structure (smiles),measurement,setting,value
"CN1C(=O)CN=C(c2ccccc2)c2cc(Cl)ccc21 [Diazepam, diazepam]",Mean time (sec) ± s.e.m. in open arms,male Swiss Webster mice [1],30.3 ± 12.7 s
"O=C1NC(=O)C(c2ccccc2)(c2ccccc2)N1 [Phenytoin, phenytoin]",No. of mice protected (no body seizures in 60 min.),male Swiss Webster mice [2],1/10
CC(=O)Oc1ccccc1C(=O)O [aspirin],analgesia (percentage of mice displaying no behavioral response),male Swiss-Webster mice; 0.50 mg/kg oral as printed (complex: mg/kg of the complex),70%
CC(C)Cc1ccc(C(C)C(=O)O)cc1 (stereo not shown) [ibuprofen],analgesia (percentage of mice displaying no behavioral response),male Swiss-Webster mice; [3],80%
CC(C(=O)O)c1cccc(C(=O)c2ccccc2)c1 (stereo not shown) [ketoprofen],analgesia (percentage of mice displaying no behavioral response),male Swiss-Webster mice; 200 mg/kg oral (complex: mg/kg of the complex),56%
COc1ccc2cc([C@H](C)C(=O)O)ccc2c1 [naproxen],analgesia (percentage of mice displaying no behavioral response),male Swiss-Webster mice; [3],70%
CN1C(C(=O)Nc2ccccn2)=C(O)c2ccccc2S1(=O)=O [piroxicam],analgesia (percentage of mice displaying no behavioral response),male Swiss-Webster mice; 3 mg/kg oral (complex: mg/kg of the complex),70%
